Data published in patent publication US11376259B2, “Targeted treatment of mature T-cell lymphoma” (Eli Lilly and Company, priority 2016, dated 2022).

How the values were obtained:
[1] = Atropisomer equilibrium in solution by 1H NMR and LC-MS; type: physicochemical; settings: ambient temperature, after 24 hours
Experimental: In aqueous solutions, 8-9% of atropisomer 2 (minor atropisomer) is detected by ^1H NMR and LC-MS in equilibrium with atropisomer 1 (major atropisomer) at ambient temperature after 24 hours. In organic solvents, at ambient temperature after 24 hours, approximately 1-2% of atropisomer 2 is detected by ^1H NMR and LC-MS in equilibrium with atropisomer 1. Although detectable by ^1H NMR and LC-MS analysis, atropisomer 2 is not isolable.

AITL = test: Clinical evaluation in patients with relapsed or refractory peripheral T-cell lymphoma (AITL patients); type: in vivo, human; settings: cycle 1, oral capsules T.I.W., preliminary data
Excerpt: (§1) A study of 4,4,4-Trifluoro-N-[(1S)-2-[[(7S)-5-(2-hydroxyethyl)-6-oxo-7H-pyrido[2,3-d][3]benzazepin-7-yl]amino]-1-methyl-2-oxo-ethyl]butanamide hydrate in patients with advanced or metastatic cancer.
(§2) This study is a multicenter, nonrandomized, open-label, dose-escalation study followed by cohort expansion of oral dosed 4,4,4-trifluoro-N-[(1S)-2-[[(7S)-5-(2-hydroxyethyl)-6-oxo-7H-pyrido[2,3-d][3]benzazepin-7-yl]amino]-1-methyl-2-oxo-ethyl]butanamide hydrate in outpatients with advanced or metastatic cancer.
Cohort expansion of oral 4,4,4-trifluoro-N-[(1S)-2-[[(7S)-5-(2-hydroxyethyl)-6-oxo-7H-pyrido[2,3-d][3]benzazepin-7-yl]amino]-1-methyl-2-oxo-ethyl]butanamide hydrate in outpatients with advanced or metastatic cancer. Patients will be entered based on screened molecular alterations related to the Notch pathway. Patients initially dosed with 75 mg/dose administered T.I.W. are dose-reduced to 50 mg/dose administered T.I.W. […]
(§3) Efficacy: Efficacy will be assessed using Response Evaluation Criteria in Solid Tumors (RECIST) v1.1 or using the Cheson et al., J. Clin. Oncol., 2007, 25(5): 579-586, response criteria for lymphoma. Each patient will be assessed by 1 or more of the following radiologic tests for tumor measurement: X-ray computerized tomography (CT) scan; magnetic resonance imaging (MRI); chest X-ray; positron emission tomography (PET) scan; dynamic contrast enhanced-magnetic resonance imaging (DCE-MRI); PET/CT imaging Standardized Uptake Values (SUVMAX); Dynamic Contrast-Enhanced Ultrasonography (DCE-US).
Each patient's full extent of disease will also be assessed with: applicable tumor measurement by RECIST 1.1 (Eisenhauer et al., Eur J Cancer. 2009, 45(2): 228-247); Cheson et al., J. Clin. Oncol., 2007, 25(5): 579-586; and Choi et al., J Clin Oncol. […] To confirm objective responses, all lesions should be radiologically assessed, and the same radiologic method used for the initial response determination should be repeated at least 4 weeks following the initial observation of an objective response, using the sample method that was used at baseline. […]

PTCL-NOS = test: Clinical evaluation in patients with relapsed or refractory peripheral T-cell lymphoma (PTCL-NOS patient); type: in vivo, human; settings: Patient 3, PTCL-NOS, cycle 1, oral capsules T.I.W., preliminary data
Excerpt: as §1
as §2, with “cancer. […]” for “cancer.”
as §3
Each patient's full extent of disease will also be assessed with: applicable tumor measurement by RECIST 1.1 (Eisenhauer et al., Eur J Cancer. 2009, 45(2): 228-247); Cheson et al., J. Clin. Oncol., 2007, 25(5): 579-586; and Choi et al., J Clin Oncol. […]

C[C@H](NC(=O)CCC(F)(F)F)C(=O)N[C@@H]1C(=O)N(CCO)c2ncccc2-c2ccccc21 [Compound 1, 4,4,4-trifluoro-N-[(1S)-2-[[(7S)-5-(2-hydroxyethyl)-6-oxo-7H-pyrido[2,3-d][3]benzazepin-7-yl]amino]-1-methyl-2-oxo-ethyl]butanamide]
atropisomer 2 (minor atropisomer) detected in equilibrium with atropisomer 1 ([1]; aqueous solutions): 8-9% | atropisomer 2 (minor atropisomer) detected in equilibrium with atropisomer 1 ([1]; organic solvents): 1-2%

C[C@H](NC(=O)CCC(F)(F)F)C(=O)N[C@@H]1C(=O)N(CCO)c2ncccc2-c2ccccc21 [4,4,4-trifluoro-N-[(1S)-2-[[(7S)-5-(2-hydroxyethyl)-6-oxo-7H-pyrido[2,3-d][3]benzazepin-7-yl]amino]-1-methyl-2-oxo-ethyl]butanamide hydrate]
CT Scan assessment: Tumor decrease (AITL; Patient 1, AITL): of 80% | PET Scan (response) (AITL; Patient 1, AITL): Partial | CT Scan assessment: Tumor decrease (AITL; Patient 2, AITL): of 20% | CT Scan assessment (PTCL-NOS): Stable | Other assessments: Abnormal T cells (PTCL-NOS): Decrease of
